These results are taken from PubChem BioAssay (NCI).

Some test systems named below: CAKI-1 renal; NCI-H522 lung; IGROV1 ovarian; OVCAR-8 ovarian; OVCAR-3 ovarian; SF-295 CNS; A549 NSCLC; SN12C renal; HL-60(TB) leukemia; SR leukemia; MDA-MB-231 breast; RPMI-8226 leukemia; NCI-H23 lung; UACC-257 melanoma; 786-0 renal; U251 CNS; MOLT-4 leukemia.
Holding throughout (assay): NCI anticancer screen, dose series, 48 h

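Each compound was tested at five concentrations against cells in 96-well plates for 48 hours. TGI denotes the concentration required for complete inhibition of growth.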 Bounds are passed on as bounds.

`COc1ccc2c(O)c(S(=O)(=O)c3ccc(C)cc3)c(=O)oc2c1OC`: the TGI with CAKI-1 renal, with NCI-H522 lung, in the test with IGROV1 ovarian, with OVCAR-8 ovarian, in the test on OVCAR-3 ovarian and in the test with SF-295 CNS was above 100 µM throughout. Further, the TGI with A549 NSCLC, in the test on SN12C renal, in the test on HL-60(TB) leukemia, with SR leukemia, with MDA-MB-231 breast and in the test with RPMI-8226 leukemia was above 100 µM throughout. For the same molecule, the TGI in the test on NCI-H23 lung, with UACC-257 melanoma, in the test on 786-0 renal, in the test on U251 CNS and in the test with MOLT-4 leukemia was above 100 µM in each case.
As to `N#Cc1c2ccc([N+](=O)[O-])cc2c(=O)n2c1[nH]c1ccc(C(F)(F)F)cc12`, the TGI with CAKI-1 renal was above 100 µM; with NCI-H522 lung, 38.7 µM; with IGROV1 ovarian, above 100 µM; in the test on OVCAR-8 ovarian, above 100 µM; with OVCAR-3 ovarian, 83.4 µM; in the test on SF-295 CNS it was 66.1 µM. For the same molecule, the TGI in the test with A549 NSCLC is above 100 µM; with SN12C renal, above 100 µM; with HL-60(TB) leukemia, above 100 µM; in the test on SR leukemia it was above 25.7 µM; in the test on MDA-MB-231 breast, above 77.8 µM; in the test with RPMI-8226 leukemia it was 13.6 µM. Moreover, the TGI with NCI-H23 lung was 65.3 µM; with UACC-257 melanoma, above 100 µM; in the test on 786-0 renal, above 100 µM; in the test on U251 CNS it was above 100 µM; in the test with MOLT-4 leukemia, above 100 µM.
For the molecule `O=C(/C=C1\Sc2ccccc2N=C1CC(=O)c1ccccc1)c1ccccc1`, the TGI with CAKI-1 renal was found to be 34.1 µM; in the test with NCI-H522 lung, 55.4 µM; with IGROV1 ovarian, 37.4 µM; with OVCAR-8 ovarian, 37 µM; with OVCAR-3 ovarian, 29.5 µM; with SF-295 CNS, 24.7 µM. The TGI came to 25.1 µM with A549 NSCLC; 39.4 µM in the test on SN12C renal; 22.3 µM in the test with HL-60(TB) leukemia; 16 µM with SR leukemia; 41.8 µM in the test on MDA-MB-231 breast; 26.3 µM in the test with RPMI-8226 leukemia. Moreover, the TGI is above 100 µM in the test on NCI-H23 lung; above 100 µM in the test with UACC-257 melanoma; 21.7 µM with 786-0 renal; 18.2 µM in the test with U251 CNS; 24.7 µM in the test on MOLT-4 leukemia.
For `C[C@@H](C[C@H]1OC(C)(C)O[C@@H]1C(C)(C)O)[C@H]1CC=C2[C@]3(C)[C@H](O)C[C@H]4C(C)(C)[C@H](O)CC[C@]4(C)[C@H]3CC[C@]21C`, the TGI came to 19.5 µM with CAKI-1 renal; 20.9 µM in the test on NCI-H522 lung; 21.1 µM in the test with IGROV1 ovarian; 27.1 µM in the test on OVCAR-8 ovarian; 15.4 µM with OVCAR-3 ovarian; 18.2 µM in the test on SF-295 CNS. The TGI in the test on A549 NSCLC was 15.2 µM; in the test with SN12C renal it was 6.51 µM; in the test on HL-60(TB) leukemia, 7.88 µM; in the test with SR leukemia, 11.3 µM; in the test with MDA-MB-231 breast it was 18.7 µM; in the test with RPMI-8226 leukemia, 12.8 µM. For the same molecule, the TGI in the test with NCI-H23 lung was 26.1 µM; in the test with UACC-257 melanoma it was 20.4 µM; in the test on 786-0 renal it was 18.5 µM; in the test on U251 CNS it was 15 µM; in the test on MOLT-4 leukemia it was 14.7 µM.
On to `CC(C)=NOC(=O)CNC(=O)C(Cc1ccccc1)NC(=O)C(C)NC(=O)OC(C)(C)C` (stereo unspecified), for which the TGI in the test with CAKI-1 renal, with NCI-H522 lung, with IGROV1 ovarian, with OVCAR-8 ovarian, with OVCAR-3 ovarian and with SF-295 CNS was above 100 µM in each case. The TGI in the test on A549 NSCLC, with SN12C renal, with HL-60(TB) leukemia, in the test with SR leukemia, in the test with MDA-MB-231 breast and with RPMI-8226 leukemia was above 100 µM in each case. The TGI with NCI-H23 lung, with UACC-257 melanoma, in the test with 786-0 renal, in the test with U251 CNS and in the test on MOLT-4 leukemia was above 100 µM each time.
`COc1cc(/C=N/N=C(\N)NO)cc(OC)c1OC`: the TGI is above 100 µM with CAKI-1 renal; 80.6 µM with NCI-H522 lung; above 100 µM in the test with IGROV1 ovarian; 37.9 µM in the test with OVCAR-8 ovarian; above 100 µM in the test on OVCAR-3 ovarian; 53.2 µM with SF-295 CNS. In addition, the TGI with A549 NSCLC was above 100 µM; with SN12C renal, above 100 µM; with HL-60(TB) leukemia it was 42.1 µM; in the test with SR leukemia, 71.2 µM; with MDA-MB-231 breast, above 100 µM; in the test on RPMI-8226 leukemia it was above 100 µM. The TGI in the test on NCI-H23 lung was above 100 µM; in the test with UACC-257 melanoma, above 100 µM; in the test on 786-0 renal, 39.2 µM; in the test with U251 CNS, above 100 µM; in the test with MOLT-4 leukemia it was above 100 µM.
For `O=C1CCCC/C1=C\c1ccc([N+](=O)[O-])cc1`, the TGI with CAKI-1 renal was 35.7 µM; in the test with NCI-H522 lung it was 30.2 µM; in the test on IGROV1 ovarian, 32.1 µM; with OVCAR-8 ovarian, 37.1 µM; in the test with OVCAR-3 ovarian, 83.5 µM; in the test on SF-295 CNS it was 51 µM. For the same molecule, the TGI is 95.9 µM with A549 NSCLC; 30.9 µM in the test with SN12C renal; above 100 µM in the test with HL-60(TB) leukemia; above 100 µM with SR leukemia; 52.6 µM in the test with MDA-MB-231 breast; 44.3 µM with RPMI-8226 leukemia. Also, the TGI with NCI-H23 lung amounted to 54.8 µM; in the test with UACC-257 melanoma it was 38.5 µM; with 786-0 renal it was 28.1 µM; in the test on U251 CNS it was 29.6 µM; in the test with MOLT-4 leukemia, 30.4 µM.
Consider `Nc1nccc(NCC2(CO)CC(OCc3ccccc3)C2)n1` (stereo unspecified), for which the TGI with CAKI-1 renal, in the test on NCI-H522 lung, in the test on IGROV1 ovarian, with OVCAR-8 ovarian, with OVCAR-3 ovarian and with SF-295 CNS was above 100 µM each time. In addition, the TGI with A549 NSCLC, in the test on SN12C renal, in the test with HL-60(TB) leukemia, in the test on SR leukemia, in the test on MDA-MB-231 breast and in the test with RPMI-8226 leukemia was above 100 µM in each case. Further, the TGI with NCI-H23 lung, in the test on UACC-257 melanoma, in the test on 786-0 renal, in the test on U251 CNS and in the test on MOLT-4 leukemia was above 100 µM each time.
